US6313090A, “Methods for treating parasitic infection using thiopeptides” (The United States of America as represented by the …, priority 2000, dated 2001)

How the values were obtained:
[1] = tested on: C. parvum; test: In vivo testing, SCID mice with acute C. parvum infection; parameters: species or system Cryptospordium parvum
Procedure: SCID mice (Taconic Farms, Germantown, N.Y.), preconditioned with monoclonal antibodies to interferon as described (41), were given an acute infection of C. parvum (10^7 oocysts given orally). A total of five mice in two groups were used. One group received 500 mg/kg/day (in two doses of 250 mg/kg) of thiostrepton six days post-infection and the other group received a placebo. Treatment lasted ten days and oocyst shedding was measured by counting the number of oocysts in 30 fields under high power microscopy of acid-fast stained fecal smears and calculating the mean for each group as described (41). […] Mucosal scores describe the extent of mucosal infection detected in formalin-fixedsections of tissue samples from various gut sites (pyloric region of stomach, liver, gallbladder, mid-small intestine, terminal ileum, cecum and colon) taken during necropsy. Scoring was as follows: 0 (no infection) to 5 (maximal infection) and was expressed as the combined score of the number of gut sites examined.

[2] = tested on: P. falciparum total protein synthesis; test: Assay of inhibition of protein synthesis, [3H]leucine incorporation; format: cell-based
Procedure: Assay of Inhibition of Protein Synthesis. Assay for inhibition of protein synthesis was similar to above except the culture and drug dilutions were in RPMI-1640 without leucine (Select-Amine, Life Technologies) and the sera was extensively dialyzed as described (21). Also, the cultures were adjusted to 1% parasitemia prior to the experiment. Microtitre plates were set up with drug dilutions as described above except cultures were incubated with drug for only 4 hours. [3,4,5-^3 H]-Leucine (Moravek Biochemicals, 122 Ci/mmol, 0.5 mCi/ml, 100 μCi) was diluted to 4 ml in RPMI without leucine. The radiolabeled leucine (20 μl, […]) was added to each well and the plates were further incubated for four hours. The microtitre plates were processed as above to quantitate the incorporated radiolabel.
Assay of inhibition. The effect of thiostrepton on growth and protein synthesis of P. falciparum was compared to anisomycin, since the effect of both of these drugs is on protein synthesis. To assay the effect of thiostrepton and anisomycin on the growth of P. faciparum, inhibition of the uptake and incorporation of [^3 H]hypoxanthine was quantitated at serial dilutions of the drugs on an in vitro culture of P. falciparum. […] Inhibition of the incorporation of [^3 H]leucine was also tested at the same dilutions of the drugs. […]

C=C(NC(=O)C(=C)NC(=O)c1csc(C2=N[C@@H]3c4csc(n4)[C@H]4NC(=O)c5csc(n5)[C@H]([C@](C)(O)[C@@H](C)O)NC(=O)[C@H]5CSC(=N5)/C(=C/C)NC(=O)[C@H]([C@@H](C)O)NC(=O)c5csc(n5)[C@]3(CC2)NC(=O)[C@H](C)NC(=O)C(=C)NC(=O)[C@H](C)NC(=O)[C@H]([C@@H](C)CC)N[C@@H]2C=Cc3c([C@H](C)O)cc(nc3[C@H]2O)C(=O)O[C@@H]4C)n1)C(N)=O [Thiostrepton, thiostrepton]
Mucosal score ([1]; 2 × 250 mg/kg, combined score of gut sites, 0 (no infection) to 5 (maximal infection) per site): 9.8 | oocyst shedding compared to placebo ([1]; SCID mice, 500 mg/kg/day (two doses of 250 mg/kg), ten days, FIG. 1): significantly reduced oocyst shedding | Oocyst shedding, % Inhib ([1]; last day of 10 day treatment, 2 × 250 mg/kg): 78.9% | Oocyst shedding, Mean ([1]; last day of 10 day treatment, 2 × 250 mg/kg, oocysts in 30 fields of fecal smears): 11.2 | inhibition of total protein synthesis ([2]; at the IC50 for growth): only a negligible amount of inhibition | concentration required for almost complete inhibition of total protein synthesis ([2]; relative to the IC50 for growth): More than ten-fold higher concentrations than the IC50
